From BindingDB's records for patent US20250092022 (Neurocrine Biosciences, 2025)

Target: T1, Muscarinic acetylcholine receptor M4 (Homo sapiens, UniProt P08173)
T1 sequence (P08173 whole entry): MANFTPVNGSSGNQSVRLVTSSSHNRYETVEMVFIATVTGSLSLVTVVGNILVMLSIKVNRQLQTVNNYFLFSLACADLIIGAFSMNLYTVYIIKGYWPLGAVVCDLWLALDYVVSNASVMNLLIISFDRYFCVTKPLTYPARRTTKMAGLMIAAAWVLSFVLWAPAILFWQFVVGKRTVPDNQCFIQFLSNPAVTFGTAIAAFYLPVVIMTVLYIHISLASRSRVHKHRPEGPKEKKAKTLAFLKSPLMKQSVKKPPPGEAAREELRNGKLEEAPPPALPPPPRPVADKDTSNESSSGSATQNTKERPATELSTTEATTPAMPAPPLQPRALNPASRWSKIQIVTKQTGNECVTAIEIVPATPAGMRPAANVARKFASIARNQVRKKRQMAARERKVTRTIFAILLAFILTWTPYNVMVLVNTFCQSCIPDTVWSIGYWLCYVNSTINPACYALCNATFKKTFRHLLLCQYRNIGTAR
Test: Binding Assay
Description: Binding affinity (Ki) for the compounds was measured by inhibition of radioligand binding to membranes from CHO cells expressing human M4 receptor. Membranes were prepared by nitrogen cavitation and differential centrifugation as previously described (Hoare et al., Mol. Pharmacol. 2003 March; 63(3): 751-65). The radioligand employed was tritiated N-methylscopolamine, used at a concentration of 1.5 nM. A dose-response of twelve concentrations of compound was used, […]. The assay buffer was 50 mM HEPES, 100 mM NaCl, 5 mM MgCl2, 1 mM ethylenediaminetetraacetic acid, pH-adjusted to pH 7.4. Membranes, radioligand and compound were incubated together for 90 minutes at 37° C., in a total volume of 150 μL in a 96-well plate. Receptor-bound radioligand was then collected by harvesting the assay over glass fiber filters pretreated with polyethylenimine to trap the cell membranes, using rapid vacuum filtration. Harvesting and radioactivity counting was conducted as previously described (see, e.g., Hoare et al., Mol. Pharmacol. 2003 63(3):751-65); Erratum at Mol. Pharmacol. 2005 July; 68(1): 260).

Row | Ki [nM] | Compound
1 | < 100 | C[C@@H]1CN(c2ncc(S(=O)(=O)C3CC3)cn2)C[C@@H](C)N1C(=O)OC1CC2(C1)CN(Cc1ccccc1)C2 [US20250092022, Compound 19]
2 | < 100 | Cc1nc(N2C[C@@H](C)N(C(=O)OC3CC4(C3)CN(Cc3ccccc3)C4)[C@@H](C)C2)ncc1S(C)(=O)=O [US20250092022, Compound 40]
3 | < 100 | C[C@@H]1CN(c2ncc(S(=O)(=O)C(F)F)cn2)C[C@H](C)N1C(=O)OC1CC2(C1)CN(Cc1ccccc1)C2 [US20250092022, Compound 41]
4 | > 500 | C[C@@H]1CN(c2ncc(OCCO)cn2)C[C@H](C)N1C(=O)OC1CC2(C1)CN(Cc1ccccc1)C2 [US20250092022, Compound 52]
